Here are results for 3 compounds from patent US7736624B2, “Methods and compositions for diagnostic and therapeutic targeting of COX-2” (priority 2006, dated 2010).

One data set concerns the target T1, ovine COX-1 (Ovis aries, UniProt P05979).
T1 construct: can be purified from ovine seminal vesicles by standard procedures; from tissue; host or cells: ovine seminal vesicles
T1 sequence (P05979 25-600): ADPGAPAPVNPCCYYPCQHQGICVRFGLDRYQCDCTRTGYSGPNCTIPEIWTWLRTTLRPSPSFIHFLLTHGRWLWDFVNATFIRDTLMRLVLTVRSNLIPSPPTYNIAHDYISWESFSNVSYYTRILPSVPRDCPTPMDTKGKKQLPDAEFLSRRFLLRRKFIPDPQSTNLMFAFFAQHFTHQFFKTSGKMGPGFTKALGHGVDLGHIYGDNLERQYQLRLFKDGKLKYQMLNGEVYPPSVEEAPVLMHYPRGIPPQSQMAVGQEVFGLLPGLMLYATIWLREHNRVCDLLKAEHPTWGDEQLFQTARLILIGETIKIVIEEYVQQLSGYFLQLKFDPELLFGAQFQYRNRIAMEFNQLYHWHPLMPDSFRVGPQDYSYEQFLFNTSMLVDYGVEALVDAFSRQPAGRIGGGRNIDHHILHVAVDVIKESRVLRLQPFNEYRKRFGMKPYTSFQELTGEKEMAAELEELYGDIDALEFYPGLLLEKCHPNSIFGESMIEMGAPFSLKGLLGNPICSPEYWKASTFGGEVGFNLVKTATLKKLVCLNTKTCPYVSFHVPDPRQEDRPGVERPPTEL
The data set is described as follows: IC50 determinations using purified enzymes (TLC assay), COX-1. Type of data set: biochemical. The conditions noted are these: Table 1; assayed against purified enzymes.

The target in data set [1] is T2, COX-2 (Homo sapiens, UniProt P35354).
T2 sequence (P35354 18-604): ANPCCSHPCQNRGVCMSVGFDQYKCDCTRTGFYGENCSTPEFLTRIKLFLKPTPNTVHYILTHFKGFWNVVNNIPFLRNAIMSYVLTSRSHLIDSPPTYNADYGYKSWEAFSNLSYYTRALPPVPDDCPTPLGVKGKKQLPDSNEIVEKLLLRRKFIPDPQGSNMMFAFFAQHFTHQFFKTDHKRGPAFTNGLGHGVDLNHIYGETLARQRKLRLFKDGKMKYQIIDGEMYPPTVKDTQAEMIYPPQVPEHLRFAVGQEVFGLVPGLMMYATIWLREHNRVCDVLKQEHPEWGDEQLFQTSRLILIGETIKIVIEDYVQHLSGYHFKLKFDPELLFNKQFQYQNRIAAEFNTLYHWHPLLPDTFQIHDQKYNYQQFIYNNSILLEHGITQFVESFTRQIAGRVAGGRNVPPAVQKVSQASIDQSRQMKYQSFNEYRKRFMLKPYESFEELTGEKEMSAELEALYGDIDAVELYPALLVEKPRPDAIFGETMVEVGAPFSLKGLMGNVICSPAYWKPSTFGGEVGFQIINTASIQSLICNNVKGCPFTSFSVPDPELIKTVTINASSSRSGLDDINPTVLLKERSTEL
The data set is described as follows: IC50 determinations using purified enzymes (TLC assay), COX-2. Type of data set: biochemical. Further details: made in house; host or cells: Sf9 insect cells. The conditions noted are these: purified enzyme; read-out: COX-2 IC50.

Data set [2] can be described thus: In vitro metabolism study (esterase hydrolysis) with 1483 HNSCC cells, RP-HPLC. Type of data set: in vitro ADME. As to conditions: human, read-out: t1/2, disappearance of the parent conjugate (converted). The protocol: (§1) An in vitro metabolism study was performed with Compound 27i using 1483 HNSCC cells to check the enzymatic (esterase) hydrolysis of the conjugate and identify metabolites up to 24 hours (h).

For the next data set, the system named is 1483 HNSCC cells. Described as above. The conditions noted are these: up to 24 hours. Type of data set: in vitro ADME. The protocol: as §1
Data set [3] has as its system COX-1. The conditions noted are these: literature; cited from earlier work.
The target of data set [4] is T2, COX-2. Also noted: 1483 Head/Neck Squamous Cell Carcinoma Cells (Sacks et al. (1988) Cancer Res 48, 2858-2866), which express COX-2; endogenous in cells; host or cells: 1483 HNSCC cells. The conditions noted are these: literature; cited from earlier work.
Data set [5] has as its target T3, COX-1 (Ovis aries, UniProt P05979).
T3 sequence (P05979 25-600): T1 sequence (P05979 25-600)
The conditions noted are these: literature; cited from earlier work.

Read-outs that look alike come from different tables or passages of the source.

For `COc1ccc2c(c1)c(CC(=O)NCCOC(=O)\C=C(C)/C=C/C=C(C)/C=C/C1=C(C)CCCC1(C)C)c(C)n2C(=O)c1ccc(Cl)cc1` [Compound 27i], the IC50 was over 4000 nM on ovine COX-1 and 107 nM at COX-2 [1]. Further, the half-life in data set [2] is 5.5 h. For the same compound, in the data set on 1483 HNSCC cells, the parent conjugate remained is 25%.

Take `COc1ccc2c(c1)c(CC(=O)O)c(C)n2C(=O)c1ccc(Cl)cc1` [Indomethacin, indomethacin]: the “potency as ligand of COX-1 relative to COX-2” value with COX-1 [3] is “approximately 15 fold”.

Consider `O=C(c1ccccc1)c1ccc2n1CCC2C(=O)NCc1ccc(F)cc1` (stereo not shown) [p-fluorobenzylamide of ketorolac], for which the IC50 was 80 nM at COX-2 [4] and over 65000 nM on COX-1 [5].
